{"source": "patent US20160022757A1", "about": "“THERAPEUTIC METHODS FOR TREATING SOLID TUMORS AND RELATED DIAGNOSTIC METHODS” (ICAHN SCHOOL OF MEDICINE AT MOUNT SINAI, priority 2013, published 2016)", "key": {"[1]": {"system": "ras^G12V p53^RNAi apc^RNAi animals", "experiment": "Dissemination after compound feeding, ras^G12V p53^RNAi apc^RNAi triple", "assay_type": "in vivo, Drosophila", "settings": "single agent", "procedure": "(§1) Targeted expression in the adult hindgut: Multigenic combinations were targeted to the adult hindgut using the hindgut specific gal4 line byn-gal4 (V. Hartenstein) and tub-gal80^ts (Bloomington). Crosses were kept at 16° C. to keep the transgenes silent during development and adult females were transferred to 29° C. to induce transgene expression. In addition, GFP and Dcr2 (Dicer 2) were co-expressed to mark the hindgut cells and to facilitate RNAi-mediated knock-down, respectively.\n(§2) Compound Feeding: Compound treated food was made by diluting compound stocks (made in 100% DMSO) in semi-defined Drosophila medium to achieve a final concentration of 0.5% DMSO (empirically determined as the non-toxic DMSO dose in semi-defined Drosophila medium). Adult flies were kept on compound treated medium in standard Drosophila vials for 7 days (30 flies/vial, 1 ml food/vial) and provided with fresh compound food every other day. […]\n(§3) Imaging and Scoring: Fluorescence images were taken using a Leica TCS SPE confocal microscope and processed using the Leica LAS-AF software. […] Distant migration was imaged and scored using a Leica MZ16F dissecting scope with a GFP filter under 10× magnification.\n(§4) Statistical Analysis: Statistical significance for the distant migration assay was calculated using Fisher's exact test as this test allows the analysis of contingency tables where sample sizes are relatively small. […]"}, "[2]": {"system": "ras^G12V p53^RNAi pten^RNAi apc^RNAi animals (adult hindgut)", "experiment": "Dissemination (distant migration) after compound feeding, four-hit model", "assay_type": "in vivo, Drosophila", "settings": "for dissemination in combination with bortezomib: fed together with low non-toxic bortezomib (1 μM); for distant migration (dissemination into the abdominal cavity): four-hit model ras^G12V p53^RNAi pten^RNAi apc^RNAi, compounds fed for one week, single agent", "procedure": "as §1\n(§5) Compound Feeding: Compound treated food was made by diluting compound stocks (made in 100% DMSO) in semi-defined Drosophila medium to achieve a final concentration of 0.5% DMSO (empirically determined as the non-toxic DMSO dose in semi-defined Drosophila medium). Adult flies were kept on compound treated medium in standard Drosophila vials for 7 days (30 flies/vial, 1 ml food/vial) and provided with fresh compound food every other day.\nCompound Feeding: Compounds used in this study were (stock concentrations and sources in parentheses) AZD6244 (200 mM, Selleck Chemicals), SL327 (200 mM, Tocris), GW5074 (100 mM, Tocris), Sorafenib (200 mM, LC Labs), LY294002 (200 mM, LC Labs), Rapamycin (200 mM, LC Labs), BEZ235 (20 mM, LC Labs), Dasatinib (200 mM, LC Labs), SP600125 (200 mM, LC Labs), Bortezomib (200 mM, LC Labs), Cisplatin (200 mM, Sigma), LBH589 (200 mM, LC Labs), Wortmannin (200 mM, LC Labs), PI-103-HCl (100 mM, Tocris), Everolimus (100 mM, LC Labs) and Enzastaurin (50 mM, LC Labs).\nImaging and Scoring: Fluorescence images were taken using a Leica TCS SPE confocal microscope and processed using the Leica LAS-AF software. Scoring and imaging of SA-β-gal staining was performed using an Olympus BX41 microscope and a Nikon DS-Ri1 camera. Distant migration was imaged and scored using a Leica MZ16F dissecting scope with a GFP filter under 10× magnification.\nStatistical Analysis: Statistical significance for the distant migration assay was calculated using Fisher's exact test as this test allows the analysis of contingency tables where sample sizes are relatively small. Use of a 4×2 contingency table allowed pairwise comparisons of the distant migration phenotype, which has four phenotypic categories, between different genotypes and/or treatment conditions. Each experiment was performed in duplicate (n=25-30 for each replicate) and multiple times. Error bars indicate standard error of the mean.\nGiven the low success rate of drug approvals for colorectal cancer (3) the study herein asked whether differences in genetic complexity influence a tumor model's response to drugs. Sixteen compounds that target key cancer relevant pathways and cellular processes were selected (FIG. 11); many of these compounds are currently in clinical trials including for colorectal cancer (25-27). Commencing the day of transgene induction, animals were fed compounds for one week and then scored for issemination into the abdominal cavity. Final compound concentrations in the media ranged from 1 μM-1 mM, corresponding to approximately 10-200 ng/day/animal based on adult feeding rates (FIG. 11)."}, "[3]": {"system": "ras^G12V pten^RNAi animals", "experiment": "Dissemination after compound feeding, ras^G12V pten^RNAi double", "assay_type": "in vivo, Drosophila", "settings": "single agent", "procedure": "as §1, §2, §3, §4"}, "[4]": {"system": "PI3K and TORC1 activity (p-4EBP)", "experiment": "Western blot analysis of PI3K pathway activity in hindguts after compound treatment", "assay_type": "in vivo, Drosophila", "settings": "four-hit hindguts; for p-4EBP levels: seven days", "from_the_text": "Western Blot Analysis: Primary antibodies used were rabbit anti-Drosophila phospho-AKT (S505) (1:1000, Cell Signaling), rabbit anti-pan-AKT (1:1000, Cell Signaling), rabbit anti-phospho-4EBP (T37/46) (1:1000, Cell Signaling), rabbit anti-human phospho-AKT (Ser473) (1:1000, Cell Signaling), mouse anti-α-actin (1:1000, Cell Signaling) and mouse anti-Syntaxin (1:1000, DSHB). HRP-conjugated anti-mouse and anti-rabbit antibodies were used as secondary antibodies (1:5000, Cell Signaling). For signal detection, Immobilon Chemiluminescent HRP Substrate (Millipore) was used.\nas §5\nWestern Blot Analysis: Tissue lysates for western analysis were made by grinding 10-20 hindguts in lysis buffer (50 mM Tris-HCl, 150 mM NaCl, 1 mM EDTA, 1% NP-40) supplemented with protease and phosphatase inhibitor cocktails (Sigma). Lysates were boiled for 10 minutes in SDS Sample buffer and reducing agent, resolved on SDS-Page and transferred using standard protocols. Cell lysates are prepared similarly. Protein concentrations were determined using BioRad Protein Assay Dye Reagent following manufacturer's instructions."}, "DLD-1 cells": {"system": "DLD-1 cells", "experiment": "MTT viability assay, DLD-1 cells", "assay_type": "cell-based, human", "settings": "for viability after bortezomib pre-treatment alone: doses that sensitize to BEZ235", "procedure": "(§6) Cell culture: Parental DLD-1 and HCT-116 cell lines (ATCC) and their PI3K wildtype derivatives (DLD-1 WT and HCT116 WT) (38) that were obtained from Dr. Bert Vogelstein's laboratory were maintained using DMEM with 10% FBS. All experiments were done under low serum (2.5% FBS) conditions (38). MTT assay: Cells were grown in sterile 25 cm^2 flasks to 80% confluency, trypsinized, resuspended in 100 mL DMEM with 2.5% FBS and seeded in 96-well plates in equal numbers. After 24 hours, cells were treated with compounds diluted in DMEM with 2.5% FBS as indicated for 1, 2 or 3 days. MTT assay was performed by replacing compound containing medium with fresh DMEM with 2.5% FBS and 10 mg/ml MTT reagent (Thiazoyl Blue tetrazolium Bromide, Fisher Scientific) in PBS at a ratio of 5:1 (120 μl/well; 96-well plates). Cells are incubated at 37° C. for 3 hours, then the medium is removed and cells are incubated in MTT solvent (4 mM HCl, 0.1% NP40 in isopropanol) on a shaker. The amount of MTT formazan in the resulting solution is spectrophotometrically measured at […] (and a reference filter of 620 nM). Adjusted absorbance value for each well is calculated using the following formula: (OD590SAMPLE-OD590BLANK)−(OD620SAMPLE-OD620BLANK). Each experiment is done in quadruple and relative viability is expressed as fold change in adjusted absorbance compared to untreated and DMSO treated controls in each plate."}, "HCT116 cells": {"system": "HCT116 cells", "experiment": "MTT viability assay, HCT116 cells", "assay_type": "cell-based, human", "procedure": "as §6"}, "[5]": {"system": "ras^G12V animals (adult hindgut)", "experiment": "Dissemination (distant migration) into the abdominal cavity after compound feeding, ras^G12V model", "assay_type": "in vivo, Drosophila", "settings": "compounds fed for one week, single agent", "procedure": "as §1, §2, §3, §4"}, "[6]": {"system": "ras^G12V p53^RNAi pten^RNAi apc^RNAi animals", "settings": "Drosophila, in vivo, 7 days", "description": "Targets, feeding doses and toxicity of compounds. a, List of compounds used for feeding experiments along with their targets, mechanisms of actions and concentrations used in the food. Estimated amount ingested was calculated based on our observations that adult females ingest approximately 0.2 μl of food per day (not shown). Estimated amount of ingested compound was also converted into mg/kg body weight/day using 1.1 mg as the average weight of an adult female. b, Survival curves of ras^G12V p53^RNAi pten^RNAi apc^RNAi animals fed the indicated compounds."}, "PI3K pathway": {"system": "PI3K pathway", "experiment": "Western blot of PI3K pathway activation in DLD-1 cells", "assay_type": "cell-based, human", "settings": "DLD-1 cells treated with bortezomib", "excerpt": "Western Blot Analysis: Primary antibodies used were rabbit anti-Drosophila phospho-AKT ([MUT]) (1:1000, Cell Signaling), rabbit anti-pan-AKT (1:1000, Cell Signaling), rabbit anti-phospho-4EBP (T37/46) (1:1000, Cell Signaling), rabbit anti-human phospho-AKT (Ser473) (1:1000, Cell Signaling), mouse anti-α-actin (1:1000, Cell Signaling) and mouse anti-Syntaxin (1:1000, DSHB). HRP-conjugated anti-mouse and anti-rabbit antibodies were used as secondary antibodies (1:5000, Cell Signaling). For signal detection, Immobilon Chemiluminescent HRP Substrate (Millipore) was used. […] All experiments were done under low serum (2.5% FBS) conditions (38). […] Lysates were boiled for 10 minutes in SDS Sample buffer and reducing agent, resolved on SDS-Page and transferred using standard protocols. Cell lysates are prepared similarly. Protein concentrations were determined using BioRad Protein Assay Dye Reagent following manufacturer's instructions."}}, "note": "Entries after “also recorded” stand apart in the source; their conditions may differ."}
{"smiles": "Cn1c(=O)n(-c2ccc(C(C)(C)C#N)cc2)c2c3cc(-c4cnc5ccccc5c4)ccc3ncc21", "note": "[BEZ235]", "values": [{"measurement": "dissemination, response to BEZ235", "setting": "[1]", "value": "rendered the animals sensitive to BEZ235"}, {"measurement": "dissemination in combination with bortezomib", "setting": "[2]; four-hit model", "value": "synergized"}, {"measurement": "dissemination after sequential treatment, bortezomib followed by BEZ235", "setting": "[2]; four-hit model, sequential feeding", "value": "effective; also recorded: much more effective than concurrent feeding"}, {"measurement": "dissemination, response to BEZ235", "setting": "[3]", "value": "sufficient to direct resistance to BEZ235"}, {"measurement": "p-4EBP levels", "setting": "[4]; combined with bortezomib", "value": "reduced p-4EBP back to baseline levels"}, {"measurement": "sensitivity to BEZ235 after pretreatment with bortezomib", "setting": "DLD-1 cells; DLD-1 cells, bortezomib pretreatment for 24 hours", "value": "Increased sensitivity; also recorded: rendered DLD-1 cells sensitive to BEZ235 treatment; also recorded: sensitize the cells to BEZ235"}, {"measurement": "BEZ235 dose response, parental versus PI3K wildtype line", "setting": "DLD-1 cells; DLD-1 parental (Ras and PI3K active) vs DLD-1-WT", "value": "more resistant to BEZ235 than the derivative line DLD-1-WT"}, {"measurement": "sensitivity to BEZ235 after pretreatment with bortezomib", "setting": "HCT116 cells; HCT116 cells, bortezomib pretreatment for 24 hours", "value": "sensitize the cells to BEZ235"}, {"measurement": "BEZ235 dose response, parental versus PI3K wildtype line", "setting": "HCT116 cells; HCT116 parental (Ras and PI3K active) vs HCT116-WT", "value": "more resistant to BEZ235 than its PI3K pathway wildtype counterpart, HCT116-WT"}]}
{"smiles": "Cc1[nH]c2ccccc2c1CCNCc1ccc(/C=C/C(=O)NO)cc1", "note": "[LBH589]", "values": [{"measurement": "distant migration (dissemination into the abdominal cavity)", "setting": "[2]", "value": "not against ras^G12V p53^RNAi pten^RNAi apc^RNAi at non-toxic doses"}, {"measurement": "distant migration (dissemination into the abdominal cavity)", "setting": "[5]", "value": "effective against ras^G12V"}]}
{"smiles": "O=c1cc(N2CCOCC2)oc2c(-c3ccccc3)cccc12", "note": "[LY294002, 2-(4-morpholinyl)-8-phenyl-4H-1-benzopyran-4-one]", "values": [{"measurement": "dissemination in combination with bortezomib", "setting": "[2]; four-hit model", "value": "synergized"}, {"measurement": "p-4EBP levels", "setting": "[4]; combined with bortezomib", "value": "reduced p-4EBP back to baseline levels"}]}
{"smiles": "Oc1cccc(-c2nc(N3CCOCC3)c3oc4ncccc4c3n2)c1", "note": "[P1103]", "values": [{"measurement": "dissemination in combination with bortezomib", "setting": "[2]; four-hit model", "value": "synergized"}]}
{"smiles": "CC(C)C[C@H](NC(=O)[C@H](Cc1ccccc1)NC(=O)c1cnccn1)B(O)O", "note": "[bortezomib]", "values": [{"measurement": "distant migration (dissemination into the abdominal cavity)", "setting": "[2]", "value": "only showed efficacy at doses that otherwise killed more than 70% of the animals"}, {"measurement": "animals killed at doses showing efficacy", "setting": "[6]", "value": "more than 70 % of the animals"}, {"measurement": "PI3K and TORC1 activity", "setting": "[4]; low doses of bortezomib", "value": "directed upregulation of PI3K and TORC1 activity"}, {"measurement": "p-4EBP levels", "setting": "[4]; bortezomib treatment alone", "value": "increase in p-4EBP levels"}, {"measurement": "PI3K pathway activation status", "setting": "PI3K pathway", "value": "activated the PI3K pathway"}, {"measurement": "viability after bortezomib pre-treatment alone", "setting": "DLD-1 cells; DLD-1 cells", "value": "did not affect survival"}, {"measurement": "viability after bortezomib pre-treatment alone", "setting": "DLD-1 cells; DLD-1 cells, listed as Bortezomib", "value": "does not affect the viability; also recorded: has no effect on viability"}, {"measurement": "viability after bortezomib pre-treatment alone", "setting": "HCT116 cells; HCT116 cells, doses that sensitize to BEZ235", "value": "does not affect the viability; also recorded: has no effect on viability"}]}
